target: T1, His-tagged full-length RSK2 (RPS6KA3) (Homo sapiens, UniProt P51812); test: RSK2 Omnia Assay for compound IC50 determination; format: biochemical; conditions: ATP 15 μM, n=2, read-out: Mean RSK2 Biochem IC50
T1 construct: His-tagged full-length RSK2 (RPS6KA3, Invitrogen PV3323); His; purchased Invitrogen PV3323
Experimental: RSK1 & RSK2 Omnia Assay Protocol for Compound IC50 Determination
The Omnia Assay (Invitrogen) has been optimized for His-tagged full length RSK1 (RPS6KA1, Millipore 14-509) and for His-tagged full-length RSK2 (RPS6KA3, Invitrogen PV3323). In this assay system, Omnia ST Peptide 6 (Invitrogen KNZ1061) functions as a substrate for RSK1 or RSK2. Phosphorylation of this SOX-containing peptide results in an increase in fluorescence at 485 nm upon excitation at 360 nm.
Assays are carried out in 384-well OptiPlates (Perkin Elmer 6007290) in a total volume of 20 μL containing RSK1 ([…]) or RSK2 ([…]), Omnia ST Peptide 6 (5 μM), ATP (15 μM, Km=16.3 μM), and test compound (variable) in RSK assay buffer (50 mM HEPES, pH 7.5, 10 mM MgCl2, 0.01% Tween-20, 1% glycerol, 1 mM DTT, 1 mM EGTA, 0.01% BSA) with 1% DMSO.
IC50s for test compounds are typically determined using an 11-point three-fold serial dilution with a final assay concentration ranging either from 170 μM to […] or from 17 μM to […]. All compound concentrations are assayed in duplicate. Initial compound dilutions are prepared at 100× concentration in 100% DMSO from a 10 mM stock solution. Compounds are further diluted 1:25 in assay buffer resulting in a 4× concentrated solution.
To run the assay 5 μL of the above 4× concentrated compound solution (or 4% DMSO for positive controls) is added to the assay plate followed by 5 μL of a solution containing peptide (20 μM) and ATP (60 μM) in assay buffer. The reaction is initiated by the addition of 10 μL of RSK1 ([…]) or RSK2 ([…]) in assay buffer, or assay buffer alone for negative controls. The increase in fluorescence due to peptide phosphorylation is monitored continuously as a function of time using a Spectramax M5 plate reader (Molecular Devices) equipped with SoftMax Pro software.
The slopes from the linear portion of progress curves are used to determine IC50 values by non-linear curve-fitting to a four-parameter equation using GraphPad Prism (GraphPad Software, Inc.) or XLFit (IDBS). IC50's are determined in duplicate (n=2) and Ki values are calculated from IC50 values using the Cheng-Prusoff equation assuming a competitive mode of inhibition.

T1 sequence (P51812 whole entry): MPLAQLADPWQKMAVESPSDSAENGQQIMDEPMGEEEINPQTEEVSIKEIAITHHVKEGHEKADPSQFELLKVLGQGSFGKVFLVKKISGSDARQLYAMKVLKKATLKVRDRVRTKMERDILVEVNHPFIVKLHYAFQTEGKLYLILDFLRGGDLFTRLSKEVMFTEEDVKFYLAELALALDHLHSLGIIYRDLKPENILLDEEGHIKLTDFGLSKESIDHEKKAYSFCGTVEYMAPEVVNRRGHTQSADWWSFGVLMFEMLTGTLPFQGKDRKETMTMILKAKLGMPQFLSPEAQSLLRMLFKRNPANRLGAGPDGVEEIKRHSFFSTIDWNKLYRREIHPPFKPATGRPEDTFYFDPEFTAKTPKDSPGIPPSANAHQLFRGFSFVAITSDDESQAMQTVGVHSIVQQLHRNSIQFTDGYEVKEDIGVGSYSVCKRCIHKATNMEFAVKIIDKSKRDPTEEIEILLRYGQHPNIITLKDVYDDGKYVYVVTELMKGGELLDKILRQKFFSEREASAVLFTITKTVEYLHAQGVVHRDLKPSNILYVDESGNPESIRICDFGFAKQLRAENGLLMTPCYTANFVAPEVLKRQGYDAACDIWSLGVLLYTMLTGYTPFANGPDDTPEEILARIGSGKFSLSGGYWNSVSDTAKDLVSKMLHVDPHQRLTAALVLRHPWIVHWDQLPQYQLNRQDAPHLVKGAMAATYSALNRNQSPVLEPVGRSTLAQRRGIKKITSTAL

Compound	IC50 [nM]
CC[C@@H]1C(=O)N(c2cccc(C#N)c2)c2cnc(Nc3cc(F)c4[nH]ncc4c3)nc2N1C1CCCCC1 [compound 287, 3-[(7R)-8-cyclohexyl-7-ethyl-2-[(7-fluoro-1H-indazol-5-yl)amino]-6-oxo-7,8-dihydropteridin-5(6H)-yl]benzonitrile]	≤ 100
CNC(=O)Cc1ccc(Nc2ncc3c(n2)N(CCC(C)C)C(C)C(=O)N3c2ccccc2)cc1 (centres unmarked) [Example 5, N-methyl-2-(4-{[7-methyl-8-(3-methylbutyl)-6-oxo-5-phenyl-5,6,7,8-tetrahydropteridin-2-yl]amino}phenyl)acetamide]	100 to 1000
C[C@@H]1C(=O)N(c2cccc(C#N)c2)c2cnc(Nc3cc(F)c4[nH]nc(F)c4c3)nc2N1C1CCCCC1 [compound 131, 3-[(7R)-8-cyclohexyl-2-[(3,7-difluoro-1H-indazol-5-yl)amino]-7-methyl-6-oxo-7,8-dihydropteridin-5(6H)-yl]benzonitrile]	≤ 100
C[C@@H]1C(=O)N(c2cccc(C#N)c2)c2cnc(Nc3cc(F)c4[nH]nc(F)c4c3F)nc2N1C1CCCCC1 [compound 146, 3-[(7R)-8-cyclohexyl-7-methyl-6-oxo-2-[(3,4,7-trifluoro-1H-indazol-5-yl)amino]-7,8-dihydropteridin-5(6H)-yl]benzonitrile]	≤ 100
CC(C)CCN1c2nc(Nc3cc(F)c4[nH]c(=O)oc4c3)ncc2N(c2cccc(C#N)c2)C(=O)[C@H]1C [Example 90, 3-[(7R)-2-[(4-fluoro-2-oxo-2,3-dihydro-1,3-benzoxazol-6-yl)amino]-7-methyl-8-(3-methylbutyl)-6-oxo-7,8-dihydropteridin-5(6H)-yl]benzonitrile]	≤ 100
COc1ccc(N2c3nc(Nc4cc(F)c5[nH]ncc5c4)ncc3N(c3cccc(C#N)c3)C(=O)[C@H]2C)cc1 [compound 182, 3-[(7R)-2-[(7-fluoro-1H-indazol-5-yl)amino]-8-(4-methoxyphenyl)-7-methyl-6-oxo-7,8-dihydropteridin-5(6H)-yl]benzonitrile]	≤ 100
C[C@@H]1C(=O)N(c2cccc(C#N)c2)c2cnc(Nc3ccc(N)c(C(F)(F)F)c3)nc2N1C1CCC(F)(F)CC1 [compound 275]	> 1000
C[C@@H]1C(=O)N(c2ccccc2)c2cnc(Nc3ccc4[nH]ncc4c3)nc2N1CCCO [Example 77, (7R)-8-(3-hydroxypropyl)-2-(1H-indazol-5-ylamino)-7-methyl-5-phenyl-7,8-dihydropteridin-6(5H)-one]	100 to 1000
CO[C@H]1CC[C@@H](N2c3nc(Nc4cc(F)c5[nH]ncc5c4)ncc3N(c3cccnc3)C(=O)[C@H]2C)CC1 [compound 227, (7R)-2-[(7-fluoro-1H-indazol-5-yl)amino]-8-(cis-4-methoxycyclohexyl)-7-methyl-5-(pyridin-3-yl)-7,8-dihydropteridin-6(5H)-one]	≤ 100
C[C@@H]1C(=O)N(c2cccc(C#N)c2)c2cnc(Nc3cc(F)c4[nH]ncc4c3)nc2N1C1CCC(C)(C)CC1 [Example 209, 3-[(7R)-8-(4,4-dimethylcyclohexyl)-2-[(7-fluoro-1H-indazol-5-yl)amino]-7-methyl-6-oxo-7,8-dihydropteridin-5(6H)-yl]benzonitrile]	≤ 100
CC[C@@H]1C(=O)N(c2cccc(C#N)c2)c2cnc(Nc3cc(F)c4[nH]ncc4c3)nc2N1C1CCCC1 [Example 217, 3-[(7R)-8-cyclopentyl-7-ethyl-2-[(7-fluoro-1H-indazol-5-yl)amino]-6-oxo-7,8-dihydropteridin-5(6H)-yl]benzonitrile]	≤ 100

More lines, now with the values ahead:

IC50 [nM]	Compound
≤ 100	C[C@@H]1C(=O)N(c2ccc(N3CCC(O)CC3)nc2)c2cnc(Nc3cc(F)c4[nH]ncc4c3)nc2N1C1CCCCC1 [compound 147, (7R)-8-cyclohexyl-2-[(7-fluoro-1H-indazol-5-yl)amino]-5-[6-(4-hydroxypiperidin-1-yl)pyridin-3-yl]-7-methyl-7,8-dihydropteridin-6(5H)-one]
≤ 100	C[C@@H]1C(=O)N(c2ccc(F)cc2)c2cnc(Nc3ccc4[nH]ncc4c3)nc2N1C1CCCCC1 [Example 24, (7R)-8-cyclohexyl-5-(4-fluorophenyl)-2-(1H-indazol-5-ylamino)-7-methyl-7,8-dihydropteridin-6(5H)-one]
≤ 100	COc1cc(N2C(=O)[C@@H](C)N(C3CCCCC3)c3nc(Nc4ccc5[nH]ncc5c4)ncc32)ccc1C [compound 125, (7R)-8-cyclohexyl-2-(1H-indazol-5-ylamino)-5-(3-methoxy-4-methylphenyl)-7-methyl-7,8-dihydropteridin-6(5H)-one]
≤ 100	CSc1ccc(N2C(=O)[C@@H](C)N(C3CCCCC3)c3nc(Nc4ccc5[nH]ncc5c4)ncc32)cn1 [compound 98, (7R)-8-cyclohexyl-2-(1H-indazol-5-ylamino)-7-methyl-5-[6-(methylsulfanyl)pyridin-3-yl]-7,8-dihydropteridin-6(5H)-one]
100 to 1000	Cc1n[nH]c2ccc(Nc3ncc4c(n3)N(C3CCCCC3)[C@H](C)C(=O)N4c3cccc(C#N)c3)cc12 [compound 103, 3-[(7R)-8-cyclohexyl-7-methyl-2-[(3-methyl-1H-indazol-5-yl)amino]-6-oxo-7,8-dihydropteridin-5(6H)-yl]benzonitrile]
≤ 100	C[C@@H]1C(=O)N(c2cccc(C#N)c2)c2cnc(Nc3ccc4[nH]ncc4c3)nc2N1CC1CCC1 [Example 71, 3-[(7R)-8-(cyclobutylmethyl)-2-(1H-indazol-5-ylamino)-7-methyl-6-oxo-7,8-dihydropteridin-5(6H)-yl]benzonitrile]
≤ 100	COc1cc(N2C(=O)[C@@H](C)N(C3CCCCC3)c3nc(Nc4ccc5[nH]ncc5c4)ncc32)ccc1F [Example 54, (7R)-8-cyclohexyl-5-(4-fluoro-3-methoxyphenyl)-2-(1H-indazol-5-ylamino)-7-methyl-7,8-dihydropteridin-6(5H)-one]
≤ 100	COc1ccc(N2C(=O)[C@@H](C)N(C3CCCCC3)c3nc(Nc4cnc5[nH]ncc5c4)ncc32)cc1C#N [compound 164, 5-[(7R)-8-cyclohexyl-7-methyl-6-oxo-2-(1H-pyrazolo[3,4-b]pyridin-5-ylamino)-7,8-dihydropteridin-5(6H)-yl]-2-methoxybenzonitrile]
≤ 100	CNC(=O)c1cccc(N2C(=O)[C@@H](C)N(C3CCCCC3)c3nc(Nc4ccc5[nH]ncc5c4)ncc32)c1 [Example 46, 3-[(7R)-8-cyclohexyl-2-(1H-indazol-5-ylamino)-7-methyl-6-oxo-7,8-dihydropteridin-5(6H)-yl]-N-methylbenzamide]
≤ 100	C[C@@H]1C(=O)N(c2ccncc2)c2cnc(Nc3ccc4[nH]ncc4c3)nc2N1C1CCCCC1 [Example 20, (7R)-8-cyclohexyl-2-(1H-indazol-5-ylamino)-7-methyl-5-(pyridin-4-yl)-7,8-dihydropteridin-6(5H)-one]
≤ 100	Cc1ccc(N2C(=O)[C@@H](C)N(C3CCCCC3)c3nc(Nc4ccc5[nH]ncc5c4)ncc32)cn1 [compound 113, (7R)-8-cyclohexyl-2-(1H-indazol-5-ylamino)-7-methyl-5-(6-methylpyridin-3-yl)-7,8-dihydropteridin-6(5H)-one]
≤ 100	C[C@@H]1C(=O)N(c2cccc(F)c2)c2cnc(Nc3ccc4[nH]ncc4c3F)nc2N1C1CCCCC1 [compound 120, (7R)-8-cyclohexyl-2-[(4-fluoro-1H-indazol-5-yl)amino]-5-(3-fluorophenyl)-7-methyl-7,8-dihydropteridin-6(5H)-one]
